From PubChem BioAssay AID1259408 (Genetic Toxicology Data Bank (GENE-TOX), 2018)
Activity calls are given as the source filed them. How the calls were made is not given here. Numbered stars: 1 amine (or outer) side, 2 acyl side, 3 side chain; on linkers, the order of the positions; unused ones are H or OH. Peptide text beside a SMILES is read from it. CO = O=C([*:1])[*:2]

System: GENE-TOX genotoxicity assays, various organisms and cells
Assay: GENE-TOX mutagenicity studies
Conditions: for call: Assay Type: In vivo carcinogenicity studies
[1] = Species/Cell Type: Human lymphocytes, Assay Type: Sister-chromatid exchange (SCE) in vitro, Assay Code: SCLT, Evaluation Type: Evaluation B (Post-1980)
[2] = Species/Cell Type: Human, Assay Type: Sister-chromatid exchange (SCE) in vitro, Assay Code: SC1T, Evaluation Type: Evaluation B (Post-1980)
[3] = Species/Cell Type: Saccharomyces cerevisiae, Assay Type: Forward gene mutation, Assay Code: YEF+, Evaluation Type: Evaluation A (Pre-1980)
[4] = Species/Cell Type: Saccharomyces cerevisiae, Assay Type: Mitotic recombination or gene conversion, Assay Code: YEH+, Evaluation Type: Evaluation A (Pre-1980)
[5] = Species/Cell Type: Human, Assay Type: Sister-chromatid exchange (SCE) in vitro, Assay Code: SC1+, Evaluation Type: Evaluation B (Post-1980)
[6] = Species/Cell Type: Salmonella typhimurium (one or more of the five standard strains: TA98, TA100, TA1535, TA1537, and TA1538), Assay Type: Histidine reverse gene mutation, Ames assay, Assay Code: SAL+, Evaluation Type: Evaluation A (Pre-1980)
[7] = Species/Cell Type: Escherichia coli polA (W3119 vs P3478), Assay Type: Rec-assay, DNA effects (bacterial DNA repair), Assay Code: RE1+, Evaluation Type: Evaluation A (Pre-1980)
[8] = Species/Cell Type: Drosophila melanogaster, Assay Type: Sex-linked recessive lethal gene mutation, Assay Code: SRLT, Evaluation Type: Evaluation A (Pre-1980)
[9] = Species/Cell Type: Human, Assay Type: Sister-chromatid exchange (SCE) in vitro, Assay Code: SC1+D, Dose Response: With dose response, Evaluation Type: Evaluation B (Post-1980)
[10] = Species/Cell Type: Salmonella typhimurium (one or more of the five standard strains: TA98, TA100, TA1535, TA1537, and TA1538), Assay Type: Histidine reverse gene mutation, Ames assay, Assay Code: SAL+*, Activation: With metabolic activation, Evaluation Type: Evaluation A (Pre-1980)
[11] = Species/Cell Type: Salmonella typhimurium (one or more of the five standard strains: TA98, TA100, TA1535, TA1537, and TA1538), Assay Type: Histidine reverse gene mutation, Ames assay, Assay Code: SALT, Evaluation Type: Evaluation A (Pre-1980)
[12] = Species/Cell Type: Mammalian polychromatic erythrocytes, Assay Type: Micronucleus test, chromosome aberrations, Assay Code: MNTT, Evaluation Type: Evaluation B (Post-1980)
[13] = Species/Cell Type: Nonhuman, Assay Type: Chromosome aberrations in vitro, Assay Code: CY&+, Evaluation Type: Evaluation A (Pre-1980)

Structure (SMILES): Oc1c(Oc2ccc(Cl)cc2Cl)cc(Cl)c(Cl)c1Cl
- mutagenic call [1]: no conclusion
- mutagenic call [2]: no conclusion
- mutagenic call (Species/Cell Type: Mouse, Sex: Female, Assay Type: Spot test, gene mutation, Assay Code: MSTT, Evaluation Type: Evaluation A (Pre-1980)): no conclusion
- mutagenic call [3]: active; positive
- mutagenic call (Species/Cell Type: Saccharomyces cerevisiae, Assay Type: Mitotic recombination or gene conversion, Assay Code: YEC-, Evaluation Type: Evaluation A (Pre-1980)): inactive; negative
- mutagenic call [4]: active; positive

Structure (SMILES): CC(CN(C)C)Nc1c2ccccc2nc2cccc([N+](=O)[O-])c12 (configuration not stated)
- mutagenic call (Species/Cell Type: Human lymphocytes, Assay Type: Sister-chromatid exchange (SCE) in vitro, Assay Code: SCL+, Evaluation Type: Evaluation B (Post-1980)): active; positive
- mutagenic call [5]: active; positive

Structure (SMILES): CCN(CCCl)CCCNc1c2ccc(Cl)cc2nc2ccc(OC)cc12
- mutagenic call (Species/Cell Type: Chinese hamster lung (V79) cells, Assay Type: Forward gene mutation at the HPRT or ouabain locus, Assay Code: V79+, Evaluation Type: Evaluation A (Pre-1980)): active; positive
- mutagenic call (Species/Cell Type: Chinese hamster ovary (CHO) cells, Assay Type: Forward gene mutation at the HPRT locus, Assay Code: CHO+D, Dose Response: With dose response, Evaluation Type: Evaluation A (Pre-1980)): active; positive
- mutagenic call (Species/Cell Type: Drosophila melanogaster, Assay Type: Sex-linked recessive lethal gene mutation, Assay Code: SRL+, Evaluation Type: Evaluation A (Pre-1980)): active; positive
- mutagenic call (Species/Cell Type: Neurospora crassa, Assay Type: Forward gene mutation, Assay Code: NEF+, Evaluation Type: Evaluation A (Pre-1980)): active; positive
- mutagenic call (Species/Cell Type: Neurospora crassa, Assay Type: Reverse gene mutation, Assay Code: NER+, Evaluation Type: Evaluation A (Pre-1980)): active; positive
- call (Species/Cell Type: Nonhuman, Assay Code: CCG+L, Evaluation Type: Evaluation A (Pre-1980)): active; positive
- mutagenic call (Species/Cell Type: Rodents, Sex: Male, Assay Type: Dominant lethal test, Assay Code: DLTT, Evaluation Type: Evaluation A (Pre-1980)): no conclusion
- mutagenic call [3]: active; positive
- mutagenic call (Species/Cell Type: Saccharomyces cerevisiae, Assay Type: Mitotic recombination or gene conversion, Assay Code: YEC+, Evaluation Type: Evaluation A (Pre-1980)): active; positive
- mutagenic call [4]: active; positive
- mutagenic call (Species/Cell Type: Saccharomyces cerevisiae, Assay Type: Reverse gene mutation, Assay Code: YER+, Evaluation Type: Evaluation A (Pre-1980)): active; positive
- mutagenic call [6]: active; positive
- mutagenic call (Species/Cell Type: Vicia faba, Assay Type: Chromosome aberrations, Assay Code: VIC+D, Dose Response: With dose response, Evaluation Type: Evaluation A (Pre-1980)): active; positive

Structure (SMILES): CC(C)(C)I
- mutagenic call [7]: active; positive

Structure (SMILES): CC(C)[C@H](NC(=O)[C@H](CCCN=C(N)N)NC(=O)N[C@@H](Cc1ccccc1)C(=O)O)C(=O)N[C@H](C=O)CCCN=C(N)N ({Phe-CO}-Arg-Val-Arg-aldehyde)
- mutagenic call [5]: active; positive
- mutagenic call (Species/Cell Type: Mouse (C3H/10T1/2) cells, Assay Type: Cell transformation, Assay Code: CTH-, Evaluation Type: Evaluation A (Pre-1980)): inactive; negative
- mutagenic call (Species/Cell Type: Nonhuman, Assay Type: Sister-chromatid exchange (SCE) in vitro, Assay Code: SC2T, Evaluation Type: Evaluation B (Post-1980)): no conclusion

Structure (SMILES): Cc1c2ccccc2c(C)c2c1c(O)c(O)c1ccccc12
- mutagenic call (Species/Cell Type: Chinese hamster lung (V79) cells, Assay Type: Forward gene mutation at the HPRT or ouabain locus, Assay Code: V79-*, Activation: With metabolic activation, Evaluation Type: Evaluation A (Pre-1980)): inactive; negative
- call (Species/Cell Type: Nonhuman, Assay Code: CCGT, Evaluation Type: Evaluation A (Pre-1980)): no conclusion

Structure (SMILES): CS(=O)(=O)OC/C=C\COS(C)(=O)=O
- mutagenic call [8]: no conclusion

Structure (SMILES): Cc1[nH]cnc1CSCCN=C(NC#N)N(C)N=O
- mutagenic call (Species/Cell Type: Human lymphocytes, Assay Type: Sister-chromatid exchange (SCE) in vitro, Assay Code: SCL+D, Dose Response: With dose response, Evaluation Type: Evaluation B (Post-1980)): active; positive
- mutagenic call [9]: active; positive
- mutagenic call (Species/Cell Type: Nonhuman, Assay Type: Sister-chromatid exchange (SCE) in vitro, Assay Code: SC2+D, Dose Response: With dose response, Evaluation Type: Evaluation B (Post-1980)): active; positive

Structure (SMILES): Cc1ccnc2ccccc12
- mutagenic call [10]: active; positive

Structure (SMILES): N#[N+]c1nc[nH]c1C(N)=O
- mutagenic call [6]: active; positive

Structure (SMILES): COc1nn(CSP(=S)(OC)OC)c(=O)s1
- mutagenic call (Species/Cell Type: Nonhuman, Assay Type: Sister-chromatid exchange (SCE) in vitro, Assay Code: SC2+D*, Activation: With metabolic activation, Dose Response: With dose response, Evaluation Type: Evaluation B (Post-1980)): active; positive

Structure (SMILES): CCCCN(CCO)N=O
- mutagenic call [6]: active; positive

Structure (SMILES): CC[C@@]1(O)C[C@H](O[C@H]2C[C@H](NC)[C@H](O[C@H]3C[C@H](O)[C@H](O[C@H]4CCC(=O)[C@H](C)O4)[C@H](C)O3)[C@H](C)O2)c2c(cc3c(c2O)C(=O)c2c(O)cccc2C3=O)[C@H]1C(=O)OC
- mutagenic call [11]: no conclusion

Structure (SMILES): CCc1cn([C@H]2C[C@H](O)[C@@H](CO)O2)c(=O)[nH]c1=O
- mutagenic call [8]: no conclusion
- mutagenic call (Species/Cell Type: Drosophila melanogaster, Sex: Male, Assay Type: Heritable translocation test, chromosome aberrations, Assay Code: DHTT, Evaluation Type: Evaluation A (Pre-1980)): no conclusion
- mutagenic call [1]: no conclusion
- mutagenic call [2]: no conclusion

Structure (SMILES): O=C(/C=C/c1ccc([N+](=O)[O-])o1)NC1CCCCC1
- mutagenic call (Species/Cell Type: Neurospora crassa, Assay Type: Forward gene mutation, Assay Code: NEF-, Evaluation Type: Evaluation A (Pre-1980)): inactive; negative

Structure (SMILES): COc1cc(O)ccc1O
- mutagenic call (Species/Cell Type: Allium cepa, Assay Type: Chromosome aberrations, Assay Code: ALCT, Evaluation Type: Evaluation A (Pre-1980)): no conclusion

Structure (SMILES): ClC(Cl)c1ccccc1
- mutagenic call (Species/Cell Type: Bacillus subtilis (H17 vs M45), Assay Type: Rec-assay, spot test, DNA effects (bacterial DNA repair), Assay Code: REW+, Evaluation Type: Evaluation A (Pre-1980)): active; positive
- mutagenic call [10]: active; positive

Structure (SMILES): CCOC(=O)N(CCOC(C)=O)N=O
- mutagenic call [6]: active; positive

Structure (SMILES): Nc1cc(S(=O)(=O)O)cc2c1C(=O)/C(=N/Nc1ccc(-c3ccc(N/N=C4/C(=O)c5c(N)cc(S(=O)(=O)O)cc5C=C4S(=O)(=O)O)cc3)cc1)C(S(=O)(=O)O)=C2
- call (Species/Cell Type: Nonhuman, Assay Code: CCG+, Evaluation Type: Evaluation A (Pre-1980)): active; positive

Structure (SMILES): CCC(C)c1ccccc1OC(=O)NC (configuration not stated)
- mutagenic call (Species/Cell Type: Bacillus subtilis (H17 vs M45T), Assay Type: Rec-assay, spot test, DNA effects (bacterial DNA repair), Assay Code: REX-, Evaluation Type: Evaluation A (Pre-1980)): inactive; negative
- mutagenic call (Species/Cell Type: Escherichia coli WP2, Assay Type: Tryptophan reverse gene mutation, Assay Code: WP2-, Evaluation Type: Evaluation A (Pre-1980)): inactive; negative

Structure (SMILES): c1cc2ccc3cc4cccc5ccc6cc(c1)c2c3c6c54
- mutagenic call [10]: active; positive

Structure (SMILES): O=[N+]([O-])c1cccc2ncccc12
- mutagenic call [6]: active; positive

Structure (SMILES): Oc1ccc(Cl)cc1Cc1cc(Cl)ccc1O
- mutagenic call [12]: no conclusion

Structure (SMILES): COc1c(C)c2c(c(O)c1C/C=C(\C)CCC(=O)O)C(=O)OC2
- mutagenic call (Species/Cell Type: Bacillus subtilis (H17 vs M45), Assay Type: Rec-assay, spot test, DNA effects (bacterial DNA repair), Assay Code: REW-, Evaluation Type: Evaluation A (Pre-1980)): inactive; negative
- mutagenic call [13]: active; positive
- mutagenic call [11]: no conclusion

Structure (SMILES): CCN(CCCCCCN(CC)C(=O)C(Cl)Cl)C(=O)C(Cl)Cl
- mutagenic call (Species/Cell Type: Human, Sex: Male, Assay Type: Sperm morphology, Assay Code: SPH+, Evaluation Type: Evaluation A (Pre-1980)): active; positive

Structure (SMILES): CCNP(=O)(N1CC1)N1CC1
- mutagenic call (Species/Cell Type: Nonhuman bone marrow, Assay Type: Chromosome aberrations, in vivo, Assay Code: CY#+, Evaluation Type: Evaluation A (Pre-1980)): active; positive
- mutagenic call [13]: active; positive
- mutagenic call (Species/Cell Type: Schizosaccharomyces pombe, Assay Type: Reverse gene mutation, Assay Code: YEZ+, Evaluation Type: Evaluation A (Pre-1980)): active; positive

Structure (SMILES): Nc1c(O)ccc2ccccc12
- mutagenic call [7]: active; positive
- mutagenic call [11]: no conclusion

Structure (SMILES): CN(C)Cc1cc(Br)ccc1OCC(=O)N/N=C/c1ccccc1O
- mutagenic call (Species/Cell Type: Saccharomyces cerevisiae, Assay Type: Reverse gene mutation, Assay Code: YERT, Evaluation Type: Evaluation A (Pre-1980)): no conclusion

Structure (SMILES): CCc1cc(C(N)=S)ccn1
- mutagenic call [2]: no conclusion

Structure (SMILES): COc1ccc(Cl)cc1C(=O)NCCc1ccc(S(=O)(=O)NC(=O)NC2CCCCC2)cc1
- mutagenic call [12]: no conclusion
- mutagenic call (Species/Cell Type: Nonhuman, Assay Type: Sister-chromatid exchange (SCE) in vivo, Assay Code: SC3T, Evaluation Type: Evaluation B (Post-1980)): no conclusion

Structure (SMILES): COc1cc2c(c3oc(=O)c4c(c13)C(O)CC4O)[C@@H]1C=CO[C@@H]1O2 (some centres not stated)
- mutagenic call [10]: active; positive

Structure (SMILES): CNc1nncc2ccccc12
- mutagenic call [9]: active; positive
- mutagenic call (Species/Cell Type: Nonhuman, Assay Type: Sister-chromatid exchange (SCE) in vivo, Assay Code: SC3+, Evaluation Type: Evaluation B (Post-1980)): active; positive
